Patent publication US20210094954A1, “PREPARATION METHODS AND APPLICATIONS OF 3,5-DISUBSTITUTED METHYLPYRAZOLO[1,5-A]PYRIMIDINE-7-HYDROXYLIC SALTS” (priority 2019, published 2021)
Read-outs that look alike come from different tables or passages of the source.

Experiments:
Bacillus cereus 2 = experiment: microbe, parasite or virus in culture; assay type: cell-based; details: Bacillus cereus, 2; 37° C., 24 hours; read-out: MIC values of in vitro antibacterial test results
Bacillus subtilis 168 = experiment: microbe, parasite or virus in culture; assay type: cell-based; details: Bacillus subtilis, 168; 37° C., 24 hours; read-out: MIC values of in vitro antibacterial test results
[1] = tested on: Enterococcus faecalis 29212; experiment: microbe, parasite or virus in culture; assay type: cell-based; details: Enterococcus faecalis, 29212; 37° C., 24 hours; read-out: MIC values of in vitro antibacterial test results
[2] = tested on: Enterococcus faecalis F2518(VRE); experiment: microbe, parasite or virus in culture; assay type: cell-based; details: Enterococcus faecalis, VRE, 24 h, read-out: MIC values of in vitro antibacterial test results
[3] = tested on: Staphylococcus aureus 29231; experiment: microbe, parasite or virus in culture; assay type: cell-based; details: Staphylococcus aureus, 29231; 37° C., 24 hours; read-out: MIC values of in vitro antibacterial test results
[4] = tested on: Staphylococcus aureus 43300(MRSA); experiment: microbe, parasite or virus in culture; assay type: cell-based; details: Staphylococcus aureus, MRSA
[5] = tested on: Staphylococcus aureus 703(MRSA); experiment: microbe, parasite or virus in culture; assay type: cell-based; details: Staphylococcus aureus, MRSA
[6] = tested on: Streptococcus pneumoniae 6303 (PRSP); experiment: microbe, parasite or virus in culture; assay type: cell-based; details: Streptococcus pneumoniae, PRSP, 24 h, read-out: MIC values of in vitro antibacterial test results
[7] = tested on: Streptococcus pneumoniae M2; experiment: microbe, parasite or virus in culture; assay type: cell-based; details: Streptococcus pneumoniae, M2; 37° C., 24 hours; read-out: MIC values of in vitro antibacterial test results
[8] = tested on: Streptococcus agalactia B group; experiment: microbe, parasite or virus in culture; assay type: cell-based; details: Streptococcus; 37° C., 24 hours; read-out: MIC values of in vitro antibacterial test results
[9] = tested on: Streptococcus pneumoniae 10351; experiment: microbe, parasite or virus in culture; assay type: cell-based; details: Streptococcus pneumoniae, 10351; 37° C., 24 hours; read-out: MIC values of in vitro antibacterial test results
[10] = tested on: Bacillus anthracis Bacillus 1; experiment: microbe, parasite or virus in culture; assay type: cell-based; details: Bacillus anthracis, 24 h, read-out: MIC values of in vitro antibacterial test results
Diphtheria bacilli = experiment: organism not typed; assay type: cell-based; details: 37° C., 24 hours; read-out: MIC values of in vitro antibacterial test results
Clostridium perfringens = experiment: microbe, parasite or virus in culture; assay type: cell-based; details: Clostridium perfringens, 24 h, read-out: MIC values of in vitro antibacterial test results
Oral Candida = experiment: microbe, parasite or virus in culture; assay type: cell-based; details: Candida
Peel fungus = experiment: organism not typed; assay type: cell-based; details: 37° C., 24 hours; read-out: MIC values of in vitro antibacterial test results
[11] = tested on: F2518(VRE), Staphylococcus aureus resistant strain 43300(MRSA), 703 (MRSA), pneumococcal resistance bacteria 6303(PRSP); experiment: microbe, parasite or virus in culture; assay type: cell-based; details: read-out: MIC values (μM)
[12] = tested on: Staphylococcus aureus 43300 (MRSA); experiment: antibacterial study in vivo, survival of infected kunming mice; details: 30 days of observation
[13] = 24 h, read-out: MIC values of in vitro antibacterial test results
[14] = 37° C., 24 hours, read-out: MIC values of in vitro antibacterial test results

| Structure (SMILES) | MIC (Bacillus cereus 2) [µg/mL] | MIC (Bacillus subtilis 168) [µg/mL] | MIC [1] [µg/mL] | MIC [2] [µg/mL] | MIC [3] [µg/mL] | MIC [4, 13] [µg/mL] | MIC [5, 13] [µg/mL] | MIC [6] [µg/mL] | MIC [7] [µg/mL] | MIC [8] [µg/mL] | MIC [9] [µg/mL] | MIC [10] [µg/mL] | MIC (Diphtheria bacilli) [µg/mL] | MIC (Clostridium perfringens) [µg/mL] | MIC (Oral Candida; [14]) [µg/mL] | MIC (Peel fungus) [µg/mL] | MIC [11] [µg/mL] | Survival days ([12]; dosage 25 mg/kg) [days] | also measured |
| --- | --- | --- | --- | --- | --- | --- | --- | --- | --- | --- | --- | --- | --- | --- | --- | --- | --- | --- | --- |
| Cc1nn2c([O-])cc(-c3ccc(S(N)(=O)=O)cc3)nc2c1-c1ccc(F)cc1F.[Na+] [Compound 9, Sodium 3-(2,4-difluorophenyl)-2-methyl-5-(4-sulfamoylphenyl)pyrazolo[1,5-α]pyrimidin-7-olate] | < 150 | < 100 | < 100 | < 150 | < 100 | < 100 | < 100 | < 150 | < 100 | < 150 | < 100 | > 150 | > 150 | > 150 | < 100 | > 150 | < 100 | 3.0 | MIC (Oral Candida; read-out: MIC values (μM)): < 100 µg/mL |
| Cc1nn2c([O-])cc(-c3ccc([N+](=O)[O-])cc3)nc2c1-c1ccc(F)cc1F.[Na+] [Compound 3, Sodium 3-(2,4-difluorophenyl)-2-methyl-5-(4-nitrophenyl) pyrazolo[1,5-α]pyrimidin-7-olate] | < 100 | < 100 | < 100 | < 150 | < 100 | < 50 | < 50 | < 100 | < 100 | > 150 | < 100 | > 150 | > 150 | > 150 | > 150 | > 150 | < 100 |  | MIC ([4]; read-out: MIC values (μM)): < 50 µg/mL; MIC ([5]; read-out: MIC values (μM)): < 50 µg/mL; Survival days ([12]; dosage 30 mg/kg): 4.0 days |
| Cc1nn2c([O-])cc(-c3ccc(Oc4ccccc4)cc3)nc2c1-c1ccc(F)cc1F.[Na+] [Compound 10, Sodium 3-(2,4-difluorophenyl)-2-methyl-5-(4-phenoxyphenyl)pyrazolo[1,5-α]pyrimidin-7-olate] | < 100 | < 100 | < 100 | < 150 | < 100 | < 150 | < 100 | < 150 | < 150 | < 150 | < 100 | > 150 | > 150 | > 150 | < 150 | < 150 | < 100 | 3.5 |  |
